# Test results as given in patent publication US20210171464A1 (OLON S.P.A., priority 2017, published 2021).
# Tests used:
# [1] = exposure to atmospheric humidity (stability, hygroscopicity); assay type: physicochemical
# [2] = system: dopamine receptors; details: cited from earlier work
hygroscopicity [1],stability when exposed to atmospheric humidity ([1]; exposed to atmospheric humidity),Compound,affinity for dopamine receptors [2]
not hygroscopic,stable,CC(C)COc1ccc(CNC(=O)N(Cc2ccc(F)cc2)C2CCN(C)CC2)cc1.CC(C)COc1ccc(CNC(=O)N(Cc2ccc(F)cc2)C2CCN(C)CC2)cc1.O=C(O)C(O)C(O)C(=O)O [N-(4-fluorobenzyl)-N-(1-methylpiperidin-4-yl)-N′-(4-(2-methylpropyloxy)-phenylmethyl)carbamide hemitartrate],–
–,–,N-(4-fluorobenzyl)-N-(1-methylpiperidin-4-yl)-N′ -(4-(2-methyl-propyloxy)phenylmethyl)carbamide hemitartrate [pimavanserin hemitartrate],no affinity
